From patent US20260265244A1, “HETEROCYCLIC COMPOUNDS AS STING ANTAGONISTS” (Boehringer Ingelheim International GmbH, priority 2022, published 2026)

biological target: T1, cGAMP binding domain of wild-type (GRR) human STING, residues 155-341 (Homo sapiens, UniProt Q86WV6, H232R); assay: Increase of stability of STING protein against thermal denaturation, Differential Scanning Fluorimetry (DSF)
T1 construct: His-TEV-hSTING (WT); TEV protease cleavage site (N); made in house; host or cells: E. coli BL21 DE3
T1 sequence (Q86WV6 with tags, fused parts or gaps H232R): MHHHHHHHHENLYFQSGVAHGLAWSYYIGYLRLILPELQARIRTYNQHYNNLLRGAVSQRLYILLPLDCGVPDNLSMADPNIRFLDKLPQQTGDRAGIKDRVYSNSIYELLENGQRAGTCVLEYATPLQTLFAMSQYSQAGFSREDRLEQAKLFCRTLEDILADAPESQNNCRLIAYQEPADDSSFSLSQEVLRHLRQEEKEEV
How it was run: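 3 µM His-tagged protein with 100 uM compound, 5×SYPRO Orange, 2% DMSO in 20 mM Tris, 150 mM NaCl, pH7.5; 15–95 °C ramp in 0.5 °C steps (15 s/cycle). Tm from Boltzmann fit of the dye melt curve, duplicates averaged, repeated if SD>1.5 °C; ΔTm = Tm with compound minus Tm of protein alone.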

Compound | DSF
Cc1nc2nn(C(C)C)cc2cc1-n1nc(-c2cccc3nn(C[C@H](O)c4ccccc4)cc23)c(C(C)C)c1C [Example 18, (1R)-2-(4-{5-methyl-1-[6-methyl-2-(propan-2-yl)-2H-pyrazolo[3,4-b]pyridin-5-yl]-4-(propan-2-yl)-1H-pyrazol-3-yl}-2H-indazol-2-yl)-1-phenylethan-1-ol] | 28 K
CC(C)n1cc2cc(-c3nc(-c4cccc5nn(C[C@H](O)c6ccccc6)cc45)c(C4CC4)n3C)c(C3CC3)nc2n1 [Example 33, (1R)-2-(4-{5-cyclopropyl-2-[6-cyclopropyl-2-(propan-2-yl)-2H-pyrazolo[3,4-b]pyridin-5-yl]-1-methyl-1H-imidazol-4-yl}-2H-indazol-2-yl)-1-phenylethan-1-ol] | 31 K
Cc1nc2nn(CCN3CCOCC3)cc2cc1-n1nc(-c2cccc3nn(C[C@H](O)c4ccccc4)cc23)c(C(C)C)c1C [Example 1, (1R)-2-[4-(5-methyl-1-{6-methyl-2-[2-(morpholin-4-yl)ethyl]-2H-pyrazolo[3,4-b]pyridin-5-yl}-4-(propan-2-yl)-1H-pyrazol-3-yl)-2H-indazol-2-yl]-1-phenylethan-1-ol] | 26 K
Cn1c(-c2cc3cn(CCN4CCOCC4)nc3nc2C2CC2)nc(-c2cccc3nn(C[C@H](O)c4ccccc4)cc23)c1C1CC1 [Example 10, (1R)-2-[4-(5-cyclopropyl-2-{6-cyclopropyl-2-[2-(morpholin-4-yl)ethyl]-2H-pyrazolo[3,4-b]pyridin-5-yl}-1-methyl-1H-imidazol-4-yl)-2H-indazol-2-yl]-1-phenylethan-1-ol] | 30 K
Cn1cc2cc(-c3nc(-c4cccc5nn(C[C@H](O)c6ccccc6)cc45)c(C4CC4)n3C)c(OC(F)F)cc2n1 [Example 34, (1R)-2-(4-{5-cyclopropyl-2-[6-(difluoromethoxy)-2-methyl-2H-indazol-5-yl]-1-methyl-1H-imidazol-4-yl}-2H-indazol-2-yl)-1-phenylethan-1-ol] | 29 K
Cc1c(C2CC2)c(-c2cccc3nn(C[C@H](O)c4ccccc4)cc23)nn1-c1cc2cn(C)nc2nc1C1CC1 [Example 29, (1R)-2-[4-(4-cyclopropyl-1-{6-cyclopropyl-2-methyl-2H-pyrazolo[3,4-b]pyridin-5-yl}-5-methyl-1H-pyrazol-3-yl)-2H-indazol-2-yl]-1-phenylethan-1-ol] | 29 K
CCCn1cc2cc(-c3nc(-c4cccc5nn(CC(F)(F)c6ccccc6)cc45)c(C4CC4)n3C)c(C3CC3)nc2n1 [Example 48, 4-(5-cyclopropyl-2-{6-cyclopropyl-2-propyl-2H-pyrazolo[3,4-b]pyridin-5-yl}-1-methyl-1H-imidazol-4-yl)-2-(2,2-difluoro-2-phenylethyl)-2H-indazole] | 31 K
COCCn1cc2cc(-n3nc(-c4cccc5nn(C[C@H](O)c6ccccc6)cc45)c(C(C)C)c3C)c(C)nc2n1 [Example 16, (1R)-2-(4-{1-[2-(2-methoxyethyl)-6-methyl-2H-pyrazolo[3,4-b]pyridin-5-yl]-5-methyl-4-(propan-2-yl)-1H-pyrazol-3-yl}-2H-indazol-2-yl)-1-phenylethan-1-ol] | 28 K
Cc1nc2nn(CCCN3CCN(C)CC3)cc2cc1-n1nc(-c2cccc3nn(C[C@H](O)c4ccccc4)cc23)c(C(C)C)c1C [Example 7, (1R)-2-[4-(5-methyl-1-{6-methyl-2-[3-(4-methylpiperazin-1-yl)propyl]-2H-pyrazolo[3,4-b]pyridin-5-yl}-4-(propan-2-yl)-1H-pyrazol-3-yl)-2H-indazol-2-yl]-1-phenylethan-1-ol] | 25 K
CSc1nc2nn(C)cc2cc1-n1nc(-c2cccc3nn(C[C@H](O)c4ccccc4)cc23)c(C(C)C)c1C [Example 20, (1R)-2-(4-{5-methyl-1-[2-methyl-6-(methylsulfanyl)-2H-pyrazolo[3,4-b]pyridin-5-yl]-4-(propan-2-yl)-1H-pyrazol-3-yl}-2H-indazol-2-yl)-1-phenylethan-1-ol] | 27 K
Cc1c(C(C)C)c(-c2cccc3nn(C[C@H](O)c4ccccc4)cc23)nn1-c1cc2cn(C)nc2[n+]([O-])c1C1CC1 [Example 50, 6-cyclopropyl-5-(3-{2-[(2R)-2-hydroxy-2-phenylethyl]-2H-indazol-4-yl}-5-methyl-4-(propan-2-yl)-1H-pyrazol-1-yl)-2-methyl-2H-pyrazolo[3,4-b]pyridin-7-ium-7-olate] | 26 K
Cc1c(C(C)C)c(-c2cccc3nn(C[C@H](O)c4ccccc4)cc23)nn1-c1cc2cn(C)nc2nc1OC(C)C [Example 23, (1R)-2-(4-{5-methyl-1-[2-methyl-6-(propan-2-yloxy)-2H-pyrazolo[3,4-b]pyridin-5-yl]-4-(propan-2-yl)-1H-pyrazol-3-yl}-2H-indazol-2-yl)-1-phenylethan-1-ol] | 25 K

Next, values leading:

DSF | Compound
28 K | Cc1c(C(C)C)c(-c2cccc3nn(C[C@H](O)c4ccccc4)cc23)nn1-c1cc2cn(C)nc2nc1CC1CC1 [Example 54, (1R)-2-(4-{1-[6-(cyclopropylmethyl)-2-methyl-2H-pyrazolo[3,4-b]pyridin-5-yl]-5-methyl-4-(propan-2-yl)-1H-pyrazol-3-yl}-2H-indazol-2-yl)-1-phenylethan-1-ol]
24 K | Cc1nc2cc(C)c(-n3nc(-c4cccc5nn(C[C@H](O)c6ccccc6)cc45)c(C(C)C)c3C)cc2[nH]1 [Example 105, (1R)-2-{4-[1-(2,5-dimethyl-1H-1,3-benzodiazol-6-yl)-5-methyl-4-(propan-2-yl)-1H-pyrazol-3-yl]-2H-indazol-2-yl}-1-phenylethan-1-ol]
28 K | CCn1cc2cc(-n3nc(-c4cccc5nn(C[C@H](O)c6ccccc6)cc45)c(C(C)C)c3C)c(C)nc2n1 [Example 100, (1R)-2-[4-(1-{2-ethyl-6-methyl-2H-pyrazolo[3,4-b]pyridin-5-yl}-5-methyl-4-(propan-2-yl)-1H-pyrazol-3-yl)-2H-indazol-2-yl]-1-phenylethan-1-ol]
23 K | Cc1c(C(C)C)c(-c2cccc3nn(C[C@H](O)c4ccccc4)cc23)nn1-c1cc2cn(C)nc2nc1C(C)(C)C [Example 113, (1R)-2-[4-(1-{6-tert-butyl-2-methyl-2H-pyrazolo[3,4-b]pyridin-5-yl}-5-methyl-4-(propan-2-yl)-1 H-pyrazol-3-yl)-2H-indazol-2-yl]-1-phenylethan-1-ol]
28 K | COC(C)c1nc2nn(C)cc2cc1-n1nc(-c2cccc3nn(C[C@H](O)c4ccccc4)cc23)c(C(C)C)c1C (stereo partly drawn) [Example 58, (1R)-2-(4-{1-[6-(1-methoxyethyl)-2-methyl-2H-pyrazolo[3,4-b]pyridin-5-yl]-5-methyl-4-(propan-2-yl)-1H-pyrazol-3-yl}-2H-indazol-2-yl)-1-phenylethan-1-ol]
23 K | Cc1nc2nn(C)cc2cc1-n1nc(-c2cccc3nn(C[C@H](OCCCCO)c4ccccc4)cc23)c(C(C)C)c1C [Example 66, 4-[(1R)-2-[4-(1-{2,6-dimethyl-2H-pyrazolo[3,4-b]pyridin-5-yl}-5-methyl-4-(propan-2-yl)-1H-pyrazol-3-yl)-2H-indazol-2-yl]-1-phenylethoxy]butan-1-ol]
24 K | Cc1nc2nn(CC(O)CN3CCN(C)CC3)cc2cc1-n1nc(-c2cccc3nn(C[C@H](O)c4ccccc4)cc23)c(C(C)C)c1C (stereo partly drawn) [Example 70, 1-[5-(3-{2-[(2R)-2-hydroxy-2-phenylethyl]-2H-indazol-4-yl}-5-methyl-4-(propan-2-yl)-1H-pyrazol-1-yl)-6-methyl-2H-pyrazolo[3,4-b]pyridin-2-yl]-3-(4-methylpiperazin-1-yl)propan-2-ol]
